Laboratory results: paper PMC4032265 (PLoS ONE, 2014)
Where two headings read alike, the source gives them in different places.

Legend:
α2B adrenergic receptor = biological target: T1, α2B adrenergic receptor (Homo sapiens, UniProt P18089); assay: PDSP radioligand binding, α2B; details: for Ki: full concentration-response curves, n = 3-6 unless noted; for inhibition at 10 µM: read-out: % inhibition at 10 µM
T1 sequence (P18089 1-450): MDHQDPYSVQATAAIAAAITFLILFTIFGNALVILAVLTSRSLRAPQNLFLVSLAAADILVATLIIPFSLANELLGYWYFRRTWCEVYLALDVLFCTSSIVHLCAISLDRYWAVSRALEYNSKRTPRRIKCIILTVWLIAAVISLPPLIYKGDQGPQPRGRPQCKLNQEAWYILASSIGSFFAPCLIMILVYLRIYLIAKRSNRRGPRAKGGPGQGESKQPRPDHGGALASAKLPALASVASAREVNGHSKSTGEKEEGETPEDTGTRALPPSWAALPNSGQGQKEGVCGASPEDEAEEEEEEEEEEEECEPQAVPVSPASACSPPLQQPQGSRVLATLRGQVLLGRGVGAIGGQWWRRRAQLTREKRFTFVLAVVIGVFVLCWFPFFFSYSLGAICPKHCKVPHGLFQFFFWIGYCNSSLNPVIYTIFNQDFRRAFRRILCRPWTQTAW

[1] = biological target: T2, 5HT1A serotonergic receptor (Homo sapiens, UniProt P08908); assay: PDSP radioligand binding, 5HT1A; details: for inhibition at 10 µM: read-out: % inhibition at 10 µM
T2 sequence (P08908 1-422): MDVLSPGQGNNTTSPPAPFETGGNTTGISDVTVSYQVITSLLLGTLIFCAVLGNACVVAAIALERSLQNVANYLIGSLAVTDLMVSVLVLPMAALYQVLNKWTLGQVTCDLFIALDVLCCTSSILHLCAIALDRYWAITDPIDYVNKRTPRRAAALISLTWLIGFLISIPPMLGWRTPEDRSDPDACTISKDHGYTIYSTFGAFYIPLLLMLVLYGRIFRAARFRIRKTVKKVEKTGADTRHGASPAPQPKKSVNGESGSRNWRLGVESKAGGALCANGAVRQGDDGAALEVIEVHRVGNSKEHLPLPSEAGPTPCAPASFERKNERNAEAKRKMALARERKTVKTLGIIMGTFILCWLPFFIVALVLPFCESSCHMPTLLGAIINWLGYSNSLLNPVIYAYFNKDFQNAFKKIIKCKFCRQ

hERG potassium channel = hERG potassium channel (Homo sapiens, UniProt Q12809); assay: PDSP hERG functional assay; assay type: cell-based; details: for inhibition at 10 µM: human, single point 10 µM; for Ki: not binding
hERG potassium channel, sequence (Q12809 whole entry): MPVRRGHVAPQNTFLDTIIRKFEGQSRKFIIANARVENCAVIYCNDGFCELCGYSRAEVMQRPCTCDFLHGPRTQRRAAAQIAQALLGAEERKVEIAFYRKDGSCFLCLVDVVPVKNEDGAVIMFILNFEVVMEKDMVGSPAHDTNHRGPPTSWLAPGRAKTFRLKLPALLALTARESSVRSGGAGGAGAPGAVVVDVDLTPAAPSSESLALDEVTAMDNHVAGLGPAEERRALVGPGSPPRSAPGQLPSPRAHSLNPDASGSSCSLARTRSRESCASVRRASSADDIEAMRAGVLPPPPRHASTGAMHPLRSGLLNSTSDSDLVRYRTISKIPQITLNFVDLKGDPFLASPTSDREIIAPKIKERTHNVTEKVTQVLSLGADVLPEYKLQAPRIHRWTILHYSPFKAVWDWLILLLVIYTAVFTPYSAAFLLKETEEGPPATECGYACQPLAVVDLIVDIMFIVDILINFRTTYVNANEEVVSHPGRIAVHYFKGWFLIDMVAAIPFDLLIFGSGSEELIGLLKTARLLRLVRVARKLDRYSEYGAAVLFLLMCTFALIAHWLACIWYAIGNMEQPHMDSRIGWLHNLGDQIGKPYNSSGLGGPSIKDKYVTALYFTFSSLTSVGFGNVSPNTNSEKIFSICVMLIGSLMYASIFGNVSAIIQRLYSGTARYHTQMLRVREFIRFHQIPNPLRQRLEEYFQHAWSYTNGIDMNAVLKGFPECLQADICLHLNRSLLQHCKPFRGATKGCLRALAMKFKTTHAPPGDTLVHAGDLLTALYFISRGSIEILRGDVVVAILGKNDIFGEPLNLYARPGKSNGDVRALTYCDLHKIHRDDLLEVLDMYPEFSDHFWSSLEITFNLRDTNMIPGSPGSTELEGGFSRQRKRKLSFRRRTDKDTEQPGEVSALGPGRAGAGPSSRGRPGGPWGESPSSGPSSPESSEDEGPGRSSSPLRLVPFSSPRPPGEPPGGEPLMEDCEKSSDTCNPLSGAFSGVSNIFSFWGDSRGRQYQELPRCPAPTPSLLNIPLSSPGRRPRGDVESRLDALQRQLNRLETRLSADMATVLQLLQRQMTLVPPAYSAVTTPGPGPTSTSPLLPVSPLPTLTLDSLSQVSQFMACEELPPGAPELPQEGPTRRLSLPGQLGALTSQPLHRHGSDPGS

σ1 receptor = σ1 receptor (Cavia porcellus, UniProt Q60492); assay: PDSP radioligand binding, σ1; details: read-out: % inhibition at 10 µM
σ1 receptor, sequence (Q60492 whole entry): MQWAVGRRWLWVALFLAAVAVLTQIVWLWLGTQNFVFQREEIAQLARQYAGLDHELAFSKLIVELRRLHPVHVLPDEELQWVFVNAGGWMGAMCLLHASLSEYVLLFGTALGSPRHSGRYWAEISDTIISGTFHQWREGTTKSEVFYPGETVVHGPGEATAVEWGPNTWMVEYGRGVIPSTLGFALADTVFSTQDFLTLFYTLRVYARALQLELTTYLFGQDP

σ2 receptor = biological target: T3, σ2 receptor (Rattus norvegicus, UniProt Q5U3Y7); assay: PDSP radioligand binding, σ2; details: for inhibition at 10 µM: read-out: % inhibition at 10 µM
T3 sequence (Q5U3Y7 1-176): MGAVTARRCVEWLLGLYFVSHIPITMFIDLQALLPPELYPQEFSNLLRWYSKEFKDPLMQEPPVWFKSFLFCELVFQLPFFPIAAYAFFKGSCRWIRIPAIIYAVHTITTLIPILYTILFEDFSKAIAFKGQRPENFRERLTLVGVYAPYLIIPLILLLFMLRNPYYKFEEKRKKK

α1D adrenergic receptor = biological target: T4, α1D adrenergic receptor (Homo sapiens, UniProt P25100); assay: PDSP radioligand binding, α1D; details: read-out: % inhibition at 10 µM
T4 sequence (P25100 1-572): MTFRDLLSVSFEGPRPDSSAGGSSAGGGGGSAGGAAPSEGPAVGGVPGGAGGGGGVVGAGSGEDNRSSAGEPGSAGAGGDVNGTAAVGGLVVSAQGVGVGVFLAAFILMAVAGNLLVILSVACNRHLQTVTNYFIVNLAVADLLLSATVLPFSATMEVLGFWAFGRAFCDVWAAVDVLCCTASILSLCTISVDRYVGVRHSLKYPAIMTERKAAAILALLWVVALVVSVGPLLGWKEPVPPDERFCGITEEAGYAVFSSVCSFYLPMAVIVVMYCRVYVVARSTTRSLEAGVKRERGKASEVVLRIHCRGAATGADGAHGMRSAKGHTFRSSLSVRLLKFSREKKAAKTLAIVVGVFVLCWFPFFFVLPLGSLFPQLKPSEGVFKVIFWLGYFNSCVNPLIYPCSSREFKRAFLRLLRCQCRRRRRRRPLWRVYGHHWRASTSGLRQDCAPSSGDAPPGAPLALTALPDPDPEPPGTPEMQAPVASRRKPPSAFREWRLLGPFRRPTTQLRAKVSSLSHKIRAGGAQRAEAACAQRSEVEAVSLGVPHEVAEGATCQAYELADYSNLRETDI

β2 adrenergic receptor = β2 adrenergic receptor (Homo sapiens, UniProt P07550); assay: PDSP radioligand binding, β2; details: read-out: % inhibition at 10 µM
β2 adrenergic receptor, sequence (P07550 whole entry): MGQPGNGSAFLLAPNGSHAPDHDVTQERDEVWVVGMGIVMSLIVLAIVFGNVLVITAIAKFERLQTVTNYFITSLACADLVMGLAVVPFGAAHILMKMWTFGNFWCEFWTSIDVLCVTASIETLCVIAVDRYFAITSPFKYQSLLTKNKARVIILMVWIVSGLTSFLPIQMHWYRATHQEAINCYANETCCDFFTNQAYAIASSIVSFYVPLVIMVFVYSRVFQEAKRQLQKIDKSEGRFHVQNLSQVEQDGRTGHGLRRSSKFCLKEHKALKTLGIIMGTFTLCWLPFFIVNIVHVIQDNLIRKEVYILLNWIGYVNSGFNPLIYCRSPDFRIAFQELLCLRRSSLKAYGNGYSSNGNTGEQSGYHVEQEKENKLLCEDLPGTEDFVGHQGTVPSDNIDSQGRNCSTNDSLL

[2] = biological target: T5, M2 muscarinic acetylcholine receptor (Homo sapiens, UniProt P08172); assay: PDSP radioligand binding, M2; details: read-out: % inhibition at 10 µM
T5 sequence (P08172 1-466): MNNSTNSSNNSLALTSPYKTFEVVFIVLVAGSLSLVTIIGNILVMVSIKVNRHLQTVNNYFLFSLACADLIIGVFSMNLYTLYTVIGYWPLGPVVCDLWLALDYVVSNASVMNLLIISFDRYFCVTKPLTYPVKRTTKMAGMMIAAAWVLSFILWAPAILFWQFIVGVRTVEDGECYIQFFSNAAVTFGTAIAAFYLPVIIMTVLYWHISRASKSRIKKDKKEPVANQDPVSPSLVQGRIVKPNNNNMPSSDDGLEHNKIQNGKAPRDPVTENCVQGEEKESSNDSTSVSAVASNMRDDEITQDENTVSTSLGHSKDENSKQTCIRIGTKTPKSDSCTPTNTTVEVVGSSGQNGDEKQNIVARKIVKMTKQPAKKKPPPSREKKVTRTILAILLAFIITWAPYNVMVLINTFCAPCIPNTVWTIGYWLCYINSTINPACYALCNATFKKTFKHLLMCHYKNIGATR

[3] = biological target: H1 histaminergic receptor (Homo sapiens, UniProt P35367); assay: PDSP radioligand binding, H1; details: read-out: % inhibition at 10 µM
H1 histaminergic receptor, sequence (P35367 whole entry): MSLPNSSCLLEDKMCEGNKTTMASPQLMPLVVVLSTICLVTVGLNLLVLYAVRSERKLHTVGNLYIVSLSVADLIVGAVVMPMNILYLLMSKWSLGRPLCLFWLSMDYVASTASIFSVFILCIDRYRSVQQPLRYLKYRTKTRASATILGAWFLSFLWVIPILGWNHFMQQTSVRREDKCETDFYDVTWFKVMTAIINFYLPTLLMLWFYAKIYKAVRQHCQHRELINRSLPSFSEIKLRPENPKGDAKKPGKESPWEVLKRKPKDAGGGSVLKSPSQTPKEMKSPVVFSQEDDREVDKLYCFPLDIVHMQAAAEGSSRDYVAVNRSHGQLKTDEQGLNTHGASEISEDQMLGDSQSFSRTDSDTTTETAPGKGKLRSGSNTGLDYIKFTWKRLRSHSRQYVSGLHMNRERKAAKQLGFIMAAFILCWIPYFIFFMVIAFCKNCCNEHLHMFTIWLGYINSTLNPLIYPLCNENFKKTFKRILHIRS

D3 dopaminergic receptor = D3 dopaminergic receptor (Homo sapiens, UniProt P35462); assay: PDSP radioligand binding, D3; details: read-out: % inhibition at 10 µM
D3 dopaminergic receptor, sequence (P35462 whole entry): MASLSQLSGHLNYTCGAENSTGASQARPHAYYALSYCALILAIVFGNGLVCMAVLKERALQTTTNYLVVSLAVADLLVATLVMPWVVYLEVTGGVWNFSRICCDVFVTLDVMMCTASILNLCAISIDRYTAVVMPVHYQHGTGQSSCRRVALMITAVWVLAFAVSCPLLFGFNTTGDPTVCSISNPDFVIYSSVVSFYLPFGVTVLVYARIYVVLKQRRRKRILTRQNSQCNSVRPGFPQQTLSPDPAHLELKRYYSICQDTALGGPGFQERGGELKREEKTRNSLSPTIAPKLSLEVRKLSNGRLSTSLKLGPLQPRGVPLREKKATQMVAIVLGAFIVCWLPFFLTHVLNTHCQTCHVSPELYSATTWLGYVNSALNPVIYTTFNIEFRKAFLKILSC

D5 dopaminergic receptor = D5 dopaminergic receptor (Homo sapiens, UniProt P21918); assay: PDSP radioligand binding, D5; details: read-out: % inhibition at 10 µM
D5 dopaminergic receptor, sequence (P21918 whole entry): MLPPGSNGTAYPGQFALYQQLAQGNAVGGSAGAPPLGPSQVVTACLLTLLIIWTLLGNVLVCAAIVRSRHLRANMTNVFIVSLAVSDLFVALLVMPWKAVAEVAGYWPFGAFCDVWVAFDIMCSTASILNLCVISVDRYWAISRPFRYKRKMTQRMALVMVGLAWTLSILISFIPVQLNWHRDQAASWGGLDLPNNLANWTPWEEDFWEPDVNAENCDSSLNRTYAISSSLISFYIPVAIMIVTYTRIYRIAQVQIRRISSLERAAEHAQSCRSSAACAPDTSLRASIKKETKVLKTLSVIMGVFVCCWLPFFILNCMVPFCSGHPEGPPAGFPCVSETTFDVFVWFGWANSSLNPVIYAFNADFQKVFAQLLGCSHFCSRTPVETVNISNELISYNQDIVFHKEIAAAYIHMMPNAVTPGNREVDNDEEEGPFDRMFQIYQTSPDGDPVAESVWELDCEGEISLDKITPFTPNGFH

[4] = biological target: 5HT2A serotonergic receptor (Homo sapiens, UniProt P28223); assay: PDSP radioligand binding, 5HT2A; details: read-out: % inhibition at 10 µM; single concentration 10 µM
5HT2A serotonergic receptor, sequence (P28223 whole entry): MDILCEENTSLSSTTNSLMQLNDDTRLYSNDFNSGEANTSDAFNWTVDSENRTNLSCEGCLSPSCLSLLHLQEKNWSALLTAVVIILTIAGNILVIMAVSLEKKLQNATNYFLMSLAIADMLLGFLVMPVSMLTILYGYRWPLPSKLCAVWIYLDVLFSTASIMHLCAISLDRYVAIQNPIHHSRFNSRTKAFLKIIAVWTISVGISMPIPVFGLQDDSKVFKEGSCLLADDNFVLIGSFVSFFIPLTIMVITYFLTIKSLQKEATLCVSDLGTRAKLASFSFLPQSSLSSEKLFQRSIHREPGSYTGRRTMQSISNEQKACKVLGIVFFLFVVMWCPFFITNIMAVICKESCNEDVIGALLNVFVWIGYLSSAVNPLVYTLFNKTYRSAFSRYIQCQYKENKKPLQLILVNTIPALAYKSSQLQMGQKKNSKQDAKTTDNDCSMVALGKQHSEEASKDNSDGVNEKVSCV

[5] = biological target: 5HT6 serotonergic receptor (Homo sapiens, UniProt P50406); assay: PDSP radioligand binding, 5HT6; details: read-out: % inhibition at 10 µM
5HT6 serotonergic receptor, sequence (P50406 whole entry): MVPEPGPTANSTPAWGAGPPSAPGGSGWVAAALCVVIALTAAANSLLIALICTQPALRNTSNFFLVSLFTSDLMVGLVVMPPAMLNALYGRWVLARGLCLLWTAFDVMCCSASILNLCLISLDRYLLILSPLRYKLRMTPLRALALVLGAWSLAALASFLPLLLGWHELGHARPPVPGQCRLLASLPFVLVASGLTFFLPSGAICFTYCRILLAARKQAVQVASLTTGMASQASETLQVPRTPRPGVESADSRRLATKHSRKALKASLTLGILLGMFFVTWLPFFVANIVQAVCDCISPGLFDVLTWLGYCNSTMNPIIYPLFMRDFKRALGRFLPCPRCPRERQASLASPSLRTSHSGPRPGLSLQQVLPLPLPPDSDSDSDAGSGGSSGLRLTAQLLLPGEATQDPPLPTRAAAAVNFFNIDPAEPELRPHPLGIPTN

κ opioid receptor = κ opioid receptor (Homo sapiens, UniProt P41145); assay: PDSP radioligand binding, κ opioid; details: read-out: % inhibition at 10 µM
κ opioid receptor, sequence (P41145 whole entry): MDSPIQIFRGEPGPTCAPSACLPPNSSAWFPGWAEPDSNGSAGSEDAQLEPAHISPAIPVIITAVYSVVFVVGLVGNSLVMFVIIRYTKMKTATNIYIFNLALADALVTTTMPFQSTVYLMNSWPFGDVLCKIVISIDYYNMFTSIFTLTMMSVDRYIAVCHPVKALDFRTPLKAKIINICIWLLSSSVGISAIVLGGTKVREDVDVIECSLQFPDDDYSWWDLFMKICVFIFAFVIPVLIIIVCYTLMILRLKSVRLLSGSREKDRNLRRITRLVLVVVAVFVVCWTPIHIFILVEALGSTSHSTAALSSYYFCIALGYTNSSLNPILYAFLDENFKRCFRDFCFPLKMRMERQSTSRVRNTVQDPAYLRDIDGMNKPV

µ opioid receptor = µ opioid receptor (Homo sapiens, UniProt P35372); assay: PDSP radioligand binding, µ opioid; details: read-out: % inhibition at 10 µM
µ opioid receptor, sequence (P35372 whole entry): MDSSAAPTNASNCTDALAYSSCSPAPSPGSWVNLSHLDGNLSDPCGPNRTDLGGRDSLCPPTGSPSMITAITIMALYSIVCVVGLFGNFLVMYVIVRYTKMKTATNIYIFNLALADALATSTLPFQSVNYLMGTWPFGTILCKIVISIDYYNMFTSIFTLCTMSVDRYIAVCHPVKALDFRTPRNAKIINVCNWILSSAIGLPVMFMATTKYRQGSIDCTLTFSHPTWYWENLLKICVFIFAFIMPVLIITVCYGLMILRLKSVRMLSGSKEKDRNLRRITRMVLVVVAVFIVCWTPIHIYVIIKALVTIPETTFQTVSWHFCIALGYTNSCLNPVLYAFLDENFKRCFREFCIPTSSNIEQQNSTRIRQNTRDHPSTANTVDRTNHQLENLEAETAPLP

| SMILES | Ki (α2B adrenergic receptor) | inhibition at 10 µM (hERG potassium channel) | Ki (hERG potassium channel) | inhibition at 10 µM [4] | inhibition at 10 µM (α2B adrenergic receptor; single concentration 10 µM) | inhibition at 10 µM ([1]; single concentration 10 µM) | inhibition at 10 µM (σ1 receptor; single concentration 10 µM) | inhibition at 10 µM (σ2 receptor; single concentration 10 µM) | inhibition at 10 µM (α1D adrenergic receptor; single concentration 10 µM) | inhibition at 10 µM (β2 adrenergic receptor; single concentration 10 µM) | inhibition at 10 µM ([2]; single concentration 10 µM) | inhibition at 10 µM ([3]; single concentration 10 µM) | inhibition at 10 µM (D3 dopaminergic receptor; single concentration 10 µM) | inhibition at 10 µM (D5 dopaminergic receptor; single concentration 10 µM) | inhibition at 10 µM ([5]; single concentration 10 µM) | inhibition at 10 µM (κ opioid receptor; single concentration 10 µM) | inhibition at 10 µM (µ opioid receptor; single concentration 10 µM) | further results |
| --- | --- | --- | --- | --- | --- | --- | --- | --- | --- | --- | --- | --- | --- | --- | --- | --- | --- | --- |
| CNC(=O)[C@@]12C[C@@H]1[C@@H](n1cnc3c(NCc4cccc(Cl)c4)nc(C#Cc4ccc(F)c(F)c4)nc31)[C@H](O)[C@@H]2O [Compound 1] | 2.86 ± 1.11 µM | 43 ± 1.9% | 12.2 µM | 5% |  |  |  |  |  |  |  |  |  |  |  |  |  | inhibition at 10 µM (α2B adrenergic receptor): 49%; Ki [1]: 7.62 µM; inhibition at 10 µM [1]: 26%; inhibition at 10 µM (σ1 receptor): 0%; Ki (σ2 receptor; full curves, n = 2): 908 ± 294 nM; inhibition at 10 µM (σ2 receptor): 0%; inhibition at 10 µM (α1D adrenergic receptor): 3%; inhibition at 10 µM (β2 adrenergic receptor): 0%; inhibition at 10 µM [2]: 22%; inhibition at 10 µM [3]: 0%; inhibition at 10 µM (D3 dopaminergic receptor): 2%; inhibition at 10 µM (D5 dopaminergic receptor): 13%; inhibition at 10 µM [5]: 0%; inhibition at 10 µM (κ opioid receptor): 71%; inhibition at 10 µM (µ opioid receptor): 11% |
| CNC(=O)[C@@]12C[C@@H]1[C@@H](n1cnc3c(NCc4cccc(Cl)c4)nc(C#Cc4ccc(F)cc4)nc31)[C@H](O)[C@@H]2O [Compound 2] |  | 5.8 ± 11.9% | 39.5 µM | 19% | 12% | 5% | 2% | 30% | 6% | 0% | 0% | 0% | 4% | 19% | 36% | 20% | 7% |  |
| CNC(=O)[C@@]12C[C@@H]1[C@@H](n1cnc3c(NCc4cccc(Cl)c4)nc(C#Cc4ccccc4Cl)nc31)[C@H](O)[C@@H]2O [Compound 3] | 6.48 ± 2.94 µM | 10.3 ± 4.9% | 39.2 µM | 26% | 8% | 6% | 33% | 42% | 20% | 0% | 0% | 21% | 7% | 10% | 59% | 19% | 23% |  |
| CNC(=O)[C@@]12C[C@@H]1[C@@H](n1cnc3c(NCc4cccc(Cl)c4)nc(Cl)nc31)[C@H](O)[C@@H]2O [Compound 4] |  | 2% |  | 34% | 21% | 29% | 2% | 0% | 0% | 2% | 14% | 6% | 22% | 4% | 9% | 6% | 1% |  |
